For assay [1], the system named is Bacteroides. Put plainly: Geometric mean MIC of anaerobic bacteria isolated from dogs and cats (in vitro). The class given is cell-based. The note with it: N=37, isolated from dogs and cats, two in vitro studies, read-out: GMIC (geometric mean of the MIC values). An excerpt:
(§1) Results of In Vitro Studies Geometric mean of the MIC values (Geometric Mean MIC; GMIC) of anaerobic bacteria isolated from dogs and cats compared to the standard metronidazole (μg/ml).

Assay [2] deals with Fusobacterium. The description is as above. The class given is cell-based. Conditions: N=11, isolated from dogs and cats, two in vitro studies, read-out: GMIC (geometric mean of the MIC values).
Text: as §1

In assay [3] the test system is Peptostreptococcus. Described as above. The note with it: N=4, isolated from dogs and cats, two in vitro studies, read-out: GMIC (geometric mean of the MIC values). The class given is cell-based.
Text: as §1

Assay [4] concerns Prevotella. Described as above. The class given is cell-based. The note with it: N=25, isolated from dogs and cats, two in vitro studies, read-out: GMIC (geometric mean of the MIC values).
Text: as §1

Assay [5] relates to Porphyromonas. Described as above. Conditions: N=8, isolated from dogs and cats, two in vitro studies, read-out: GMIC (geometric mean of the MIC values). The class given is cell-based.
Text: as §1

Assay [6] relates to parodontitis. Briefly: Clinical study for the indication parodontitis. The class given is in vivo. The note with it: female beagles, 3 mg/kg once per day for seven days. As to the method:
Clinical Study for the Indication Parodontitis
The study was carried out using 16 female beagles. Pradofloxacin was administered in a dose of 3 mg/kg once per day over a period of seven days.

In assay [7] the test system is Fusobacterium nucleatum. Briefly: In vitro MIC, parodontitis-causing bacteria. The class given is cell-based. The note with it: two strains. As to the method: (§2) In this study, in each case two strains of the parodontitis-causing bacteria were isolated, and their sensitivity to pradofloxacin was determined in vitro (MIC μg/ml).
The subject of assay [8] is Prevotella intermedia. Put plainly: In vitro MIC, parodontitis-causing bacteria. The class given is cell-based. Conditions: two strains. How it is done:
as §2

The subject of assay [9] is Porphyromonas cangingivalis. Put plainly: In vitro MIC, parodontitis-causing bacteria. The class given is cell-based. Conditions: two strains. As to the method:
as §2

Assay [10] deals with Porphyromonas cansulci. Briefly: In vitro MIC, parodontitis-causing bacteria. The assay is classed as cell-based. Conditions: Porphyromonas crevioricanis, two strains. How it is done: as §2
The test system of assay [11] is Actinobacillus actinomycetemcomitans. Briefly: In vitro MIC, parodontitis-causing bacteria. The assay is classed as cell-based. The note with it: Aggregatibacter actinomycetemcomitans, two strains. As to the method: as §2
Assay [12] concerns Eikenella corrodens. Put plainly: In vitro MIC, parodontitis-causing bacteria. The assay is classed as cell-based. Conditions: two strains. As to the method:
as §2

For assay [13], the system named is Porphyromonas canons. Briefly: In vitro MIC, parodontitis-causing bacteria. The assay is classed as cell-based. The note with it: two strains. How it is done:
as §2

Assay [14] has as its system Porphyromonas gingivalis. Put plainly: In vitro MIC, parodontitis-causing bacteria. The assay is classed as cell-based. The note with it: two strains. How it is done:
as §2

In assay [15] the test system is Capnocytophaga ochracea. Put plainly: In vitro MIC, parodontitis-causing bacteria. The assay is classed as cell-based. The note with it: two strains. As to the method:
as §2

Assay [16] has as its system Campylobacter rectus. Briefly: In vitro MIC, parodontitis-causing bacteria. The assay is classed as cell-based. Conditions: two strains. As to the method: as §2

This note sets out measurements from patent US8658645B2, “Use of quinolone antibiotics” (Bayer Intellectual Property GmbH, priority 2003, dated 2014).

Converted amounts (≈) assume the structure as drawn. Read-outs that look alike come from different tables or passages of the source. A value given as a limit tells only on which side of the number the result lay.

As for `N#Cc1c(N2C[C@@H]3CCCN[C@@H]3C2)c(F)cc2c(=O)c(C(=O)O)cn(C3CC3)c12` [pradofloxacin, 8-cyano-1-cyclopropyl-7-((1S,6S)-2,8-diazabicyclo[4.3.0]nonan-8-yl)-6-fluoro-1,4-dihydro-4-oxo-3-quinolinecarboxylic acid], the MIC in assay [1] amounted to 0.4 µg/mL; in assay [2] it was 0.5 µg/mL; in assay [3], 0.4 µg/mL; in assay [4] it was 0.2 µg/mL; in [5], 0.1 µg/mL; in assay [7], 1 µg/mL (≈ 2.52 µM). Moreover, the MIC in [7] (read-out: MIC) was 0.5 µg/mL (≈ 1.26 µM); in assay [8] it was below 0.25 µg/mL; in assay [9] it was 1 µg/mL (≈ 2.52 µM); in [9] (read-out: MIC), 0.5 µg/mL (≈ 1.26 µM); in assay [10] it was below 0.25 µg/mL; in [11] it was below 0.25 µg/mL. Further, the MIC in assay [12], in assay [13], in [14], in assay [15] and in assay [16] was below 0.25 µg/mL throughout. For the same compound, the “total number of anaerobic bacteria in the periodontal pockets” value in assay [6] (after the treatment had ended, p<0.0001) was “reduced significantly”; in assay [6] (three weeks after the treatment, day 28, p=0.0007), “reduced significantly”. Besides, the “periodontal pocket depth (loss of attachment)” value in assay [6] (p=0.02) is listed as “significant reduction”.

For the compound `Cc1ncc([N+](=O)[O-])n1CCO` [metronidazole, reference compound], the MIC in [1] came out at 0.7 µg/mL; in assay [2], 1 µg/mL; in assay [3], 0.8 µg/mL; in [4] it was 0.4 µg/mL; in assay [5] it was 0.3 µg/mL.
